From patent US10681909B2, “Herbicidal triazoles” (FMC Corporation, priority 2014, dated 2020)

Experiments:
[1] = tested on: pigweed; experiment: Test A preemergence; type: in vivo, Amaranthus retroflexus; details: 0 to 100 scale (0 no effect, 100 complete control)
Source text: (§1) Seeds of plant species selected from barnyardgrass (Echinochloa crus-galli), crabgrass, large (large crabgrass, Digitaria sanguinalis), kochia (Kochia scoparia), ragweed (common ragweed, Ambrosia elatior), foxtail, giant (giant foxtail, Setaria faberii), morningglory (Ipomoea spp.), pigweed (Amaranthus retroflexus), velvetleaf (Abutilon theophrasti), ryegrass, Italian (Italian ryegrass, Lolium multiflorum), wheat (Triticum aestivum), and corn (Zea mays) were planted into a blend of loam soil and sand and treated preemergence with a directed soil spray using test chemicals formulated in a non-phytotoxic solvent mixture which included a surfactant. At the same time, plants selected from these crop and weed species and also blackgrass (Alopecurus myosuroides), and galium (catchweed bedstraw, Galium aparine), were planted in pots containing the same blend of loam soil and sand and treated with postemergence applications of test chemicals formulated in the same manner. Plants ranged in height from 2 to 10 cm and were in the one- to two-leaf stage for the postemergence treatment. […] A dash (-) response means no test result.

[2] = tested on: ragweed; experiment: Test A postemergence; type: in vivo, Ambrosia elatior; details: 0 to 100 scale (0 no effect, 100 complete control), approx. 10 d
Source text: (§2) Seeds of plant species selected from barnyardgrass (Echinochloa crus-galli), crabgrass, large (large crabgrass, Digitaria sanguinalis), kochia (Kochia scoparia), ragweed (common ragweed, Ambrosia elatior), foxtail, giant (giant foxtail, Setaria faberii), morningglory (Ipomoea spp.), pigweed (Amaranthus retroflexus), velvetleaf (Abutilon theophrasti), ryegrass, Italian (Italian ryegrass, Lolium multiflorum), wheat (Triticum aestivum), and corn (Zea mays) were planted into a blend of loam soil and sand and treated preemergence with a directed soil spray using test chemicals formulated in a non-phytotoxic solvent mixture which included a surfactant.
(§3) At the same time, plants selected from these crop and weed species and also blackgrass (Alopecurus myosuroides), and galium (catchweed bedstraw, Galium aparine), were planted in pots containing the same blend of loam soil and sand and treated with postemergence applications of test chemicals formulated in the same manner. Plants ranged in height from 2 to 10 cm and were in the one- to two-leaf stage for the postemergence treatment. Treated plants and untreated controls were maintained in a greenhouse for approximately 10 d, after which time all treated plants were compared to untreated controls and visually evaluated for injury. Plant response ratings, summarized in Table A, are based on a 0 to 100 scale where 0 is no effect and 100 is complete control. A dash (-) response means no test result.

[3] = tested on: ryegrass, Italian; experiment: Test A preemergence; type: in vivo, Lolium multiflorum; details: 0 to 100 scale (0 no effect, 100 complete control)
Source text: as §2, §3

[4] = tested on: foxtail, giant; experiment: Test A preemergence; type: in vivo, Setaria faberii; details: 0 to 100 scale (0 no effect, 100 complete control)
Source text: as §1

[5] = tested on: blackgrass; experiment: Test A postemergence; type: in vivo, Alopecurus myosuroides; details: 0 to 100 scale (0 no effect, 100 complete control), approx. 10 d
Source text: as §2, §3

[6] = tested on: galium; experiment: Test A postemergence; type: in vivo, Galium aparine; details: 0 to 100 scale (0 no effect, 100 complete control), approx. 10 d
Source text: as §2, §3

[7] = tested on: barnyardgrass; experiment: Test A postemergence; type: in vivo, Echinochloa crus-galli; details: 0 to 100 scale (0 no effect, 100 complete control), approx. 10 d
Source text: as §1

[8] = tested on: wheat; experiment: Test A postemergence; type: in vivo, Triticum aestivum; details: 0 to 100 scale (0 no effect, 100 complete control), approx. 10 d
Source text: as §1

[9] = tested on: kochia; experiment: Test A postemergence; type: in vivo, Kochia scoparia; details: 0 to 100 scale (0 no effect, 100 complete control), approx. 10 d
Source text: as §2, §3

[10] = tested on: corn; experiment: Test A postemergence; type: in vivo, Zea mays; details: 0 to 100 scale (0 no effect, 100 complete control), approx. 10 d
Source text: as §1

[11] = tested on: foxtail, giant; experiment: Test A postemergence; type: in vivo, Setaria faberii; details: 0 to 100 scale (0 no effect, 100 complete control), approx. 10 d
Source text: as §1

[12] = tested on: kochia; experiment: Test A preemergence; type: in vivo, Kochia scoparia; details: 0 to 100 scale (0 no effect, 100 complete control)
Source text: as §2, §3

[13] = tested on: ragweed; experiment: Test A preemergence; type: in vivo, Ambrosia elatior; details: 0 to 100 scale (0 no effect, 100 complete control)
Source text: as §2, §3

[14] = tested on: ryegrass, Italian; experiment: Test A postemergence; type: in vivo, Lolium multiflorum; details: 0 to 100 scale (0 no effect, 100 complete control), approx. 10 d
Source text: as §2, §3

[15] = tested on: barnyardgrass; experiment: Test A preemergence; type: in vivo, Echinochloa crus-galli; details: 0 to 100 scale (0 no effect, 100 complete control)
Source text: as §1

[16] = tested on: pigweed; experiment: Test A postemergence; type: in vivo, Amaranthus retroflexus; details: 0 to 100 scale (0 no effect, 100 complete control), approx. 10 d
Source text: as §1

Structure (SMILES)	Plant response rating, Pigweed ([1]; 31 g ai/ha)	Plant response rating, Pigweed ([1]; 125 g ai/ha)	Plant response rating, Ragweed ([2]; 31 g ai/ha)	Plant response rating, Ragweed ([2]; 125 g ai/ha)	Plant response rating, Ryegrass, Italian ([3]; 31 g ai/ha)	Plant response rating, Ryegrass, Italian ([3]; 125 g ai/ha)	Plant response rating, Foxtail, Giant ([4]; 31 g ai/ha)	Plant response rating, Foxtail, Giant ([4]; 125 g ai/ha)	Plant response rating, Blackgrass ([5]; 31 g ai/ha)	Plant response rating, Blackgrass ([5]; 125 g ai/ha)	Plant response rating, Galium ([6]; 31 g ai/ha)	Plant response rating, Galium ([6]; 125 g ai/ha)	Plant response rating, Barnyardgrass ([7]; 31 g ai/ha)	Plant response rating, Barnyardgrass ([7]; 125 g ai/ha)	Plant response rating, Wheat ([8]; 31 g ai/ha)	Plant response rating, Wheat ([8]; 125 g ai/ha)	Plant response rating, Kochia ([9]; 31 g ai/ha)	Plant response rating, Kochia ([9]; 125 g ai/ha)	Plant response rating, Corn ([10]; 31 g ai/ha)	Plant response rating, Corn ([10]; 125 g ai/ha)	also measured
FC(F)(F)COc1nc(-c2ccc(C(F)(F)F)cc2)nn1Cc1ccnc(C(F)(F)F)c1 [Compound 34]	100	100	20	50	0	90	100	100	20	50	30	90	20	70	30	50	70	90	20	20	Plant response rating, Foxtail, Giant ([11]; 31 g ai/ha): 20; Plant response rating, Foxtail, Giant ([11]; 125 g ai/ha): 90; Plant response rating, Kochia ([12]; 31 g ai/ha): 20; Plant response rating, Kochia ([12]; 125 g ai/ha): 90; Plant response rating, Ragweed ([13]; 31 g ai/ha): 0; Plant response rating, Ragweed ([13]; 125 g ai/ha): 30; Plant response rating, Ryegrass, Italian ([14]; 31 g ai/ha): 0; Plant response rating, Ryegrass, Italian ([14]; 125 g ai/ha): 20; Plant response rating, Barnyardgrass ([15]; 31 g ai/ha): 30; Plant response rating, Barnyardgrass ([15]; 125 g ai/ha): 100; Plant response rating, Pigweed ([16]; 31 g ai/ha): 100; Plant response rating, Pigweed ([16]; 125 g ai/ha): 100
Cc1nc(-c2ccc(Br)cc2)nn1Cc1ccnc(C(F)(F)F)c1 [Compound 36]	90	90	0	30	0	10	20	90	10	30	50	90	0	20	0	10	70	90	20	30	Plant response rating, Foxtail, Giant ([11]; 31 g ai/ha): 20; Plant response rating, Foxtail, Giant ([11]; 125 g ai/ha): 70; Plant response rating, Kochia ([12]; 31 g ai/ha): 60; Plant response rating, Kochia ([12]; 125 g ai/ha): 90; Plant response rating, Ragweed ([13]; 31 g ai/ha): 0; Plant response rating, Ragweed ([13]; 125 g ai/ha): 20; Plant response rating, Ryegrass, Italian ([14]; 31 g ai/ha): 0; Plant response rating, Ryegrass, Italian ([14]; 125 g ai/ha): 0; Plant response rating, Barnyardgrass ([15]; 31 g ai/ha): 0; Plant response rating, Barnyardgrass ([15]; 125 g ai/ha): 60; Plant response rating, Pigweed ([16]; 31 g ai/ha): 90; Plant response rating, Pigweed ([16]; 125 g ai/ha): 100
Cc1nc(-c2ccc(OC(F)(F)F)cc2)nn1Cc1ccnc(C(F)(F)F)c1 [Compound 37]	10	20	0	0	0	0	0	0	0	20	0	20	0	0	0	0	20	70	10	20	Plant response rating, Foxtail, Giant ([11]; 31 g ai/ha): 0; Plant response rating, Foxtail, Giant ([11]; 125 g ai/ha): 0; Plant response rating, Kochia ([12]; 31 g ai/ha): 0; Plant response rating, Kochia ([12]; 125 g ai/ha): 0; Plant response rating, Ragweed ([13]; 31 g ai/ha): 0; Plant response rating, Ragweed ([13]; 125 g ai/ha): 0; Plant response rating, Ryegrass, Italian ([14]; 31 g ai/ha): 0; Plant response rating, Ryegrass, Italian ([14]; 125 g ai/ha): 0; Plant response rating, Barnyardgrass ([15]; 31 g ai/ha): 0; Plant response rating, Barnyardgrass ([15]; 125 g ai/ha): 0; Plant response rating, Pigweed ([16]; 31 g ai/ha): 20; Plant response rating, Pigweed ([16]; 125 g ai/ha): 80
Cc1nc(-c2ccc(F)cc2)nn1Cc1ccnc(C(F)(F)F)c1 [Compound 38]	90	100	0	30	0	10	20	100	10	40	30	90	0	20	0	10	70	90	10	30	Plant response rating, Foxtail, Giant ([11]; 31 g ai/ha): 20; Plant response rating, Foxtail, Giant ([11]; 125 g ai/ha): 80; Plant response rating, Kochia ([12]; 31 g ai/ha): 30; Plant response rating, Kochia ([12]; 125 g ai/ha): 100; Plant response rating, Ragweed ([13]; 31 g ai/ha): 0; Plant response rating, Ragweed ([13]; 125 g ai/ha): 20; Plant response rating, Ryegrass, Italian ([14]; 31 g ai/ha): 0; Plant response rating, Ryegrass, Italian ([14]; 125 g ai/ha): 0; Plant response rating, Barnyardgrass ([15]; 31 g ai/ha): 0; Plant response rating, Barnyardgrass ([15]; 125 g ai/ha): 80; Plant response rating, Pigweed ([16]; 31 g ai/ha): 80; Plant response rating, Pigweed ([16]; 125 g ai/ha): 90
CCc1nc(-c2ccncc2)nn1Cc1ccnc(C(F)(F)F)c1 [Compound 39]	30	90	20	30	0	0	0	30	0	0	40	60	0	10	0	0	50	70	0	20	Plant response rating, Foxtail, Giant ([11]; 31 g ai/ha): 10; Plant response rating, Foxtail, Giant ([11]; 125 g ai/ha): 20; Plant response rating, Kochia ([12]; 31 g ai/ha): 0; Plant response rating, Kochia ([12]; 125 g ai/ha): 0; Plant response rating, Ragweed ([13]; 31 g ai/ha): 0; Plant response rating, Ragweed ([13]; 125 g ai/ha): 0; Plant response rating, Ryegrass, Italian ([14]; 31 g ai/ha): 0; Plant response rating, Ryegrass, Italian ([14]; 125 g ai/ha): 0; Plant response rating, Barnyardgrass ([15]; 31 g ai/ha): 0; Plant response rating, Barnyardgrass ([15]; 125 g ai/ha): 0; Plant response rating, Pigweed ([16]; 31 g ai/ha): 60; Plant response rating, Pigweed ([16]; 125 g ai/ha): 70
